Patent publication US20250066323A1, “INHIBITORS OF HUMAN RESPIRATORY SYNCYTIAL VIRUS AND METAPNEUMOVIRUS” (priority 2023, published 2025)
Read-outs that look alike come from different tables or passages of the source.

Tested on: RSV-A2-GFP
Test: RSV-A2-GFP viral replication assay
Format: cell-based, Human Respiratory Syncytial Virus
Source text: GFP sequence was derived from pJTI™ R4 Dest CMV N-EmGFP pA Vector (Invitrogen) and was cloned into the intergenic sequence between wild-type RSV-A2 P and M genes using standard recombineering techniques. Recombinant RSV-A2-GFP was propagated in Hep2 cells (human cells contains HeLa marker chromosomes and were derived via HeLa contamination, ATCC CCL-23) with infection Multiplicity of Infection (MOI) of 0.1. Virus was harvested 3 days after infection by collecting all culture material and freeze-thaw the viral culture in liquid nitrogen for at least 5 times. To generating virus working stocks, thaw frozen samples in 37° C. water bath then centrifuge at 218 g for 15 min at 4° C. Add 1/10 of 10×SPG (Biological Industries 06-3061-01-5A), mix, aliquot supernatant, and quick-freeze in liquid nitrogen then transfer to −80° C. freezer for storage. Virus titer was determined by automated plaque assay in HEp-2 cells following methods described previously (Wen Z. et al.; J Virol Methods. 2019 January; 263:88-95).
Calu-1 cells (human lung epidermoid carcinoma, ATCC HTB-54) assay ready freezedown (ARF generation described separately) were used in assays. Compound plates were prepared by dispensing compounds dissolved in DMSO into wells of 384 well coming 3985 polystyrene flat clear bottom optical imaging microplates (202.5 nL/well) using an ECHO acoustic dispenser. Each compound was tested in a 10-point serial 3-fold dilution (typical final concentrations: 403 nM-0.02 nM and 40.3 nM-0.002 nM). […] To set up the assay, thaw ARF vial(s) in 37° C. water bath until small ice crystal remain and resuspend into assay media (DMEM containing 2% FBS, 100 U/ml Penicillin-Streptomycin). Count cells using default parameters on ViCell and dilute to 20,000 cells per ml in assay media. Add RSV GFP to cells at 24,000 pfu/ml (MOI=1.2). Mix by gentle inversion. 10 μl/well of 100% DMSO was dispensed to CellTiter-Glo (CTG) assay Max_E controls wells. Dispense cells at 50 μl/well using Bravo and 50 μl filtered tips into compound plates. Cover plates with MicroClime lids loaded with 7.5 ml of assay media to minimize evaporation. Incubate at 37 degrees C. and 5% CO2 for 96 hrs. Following incubation, distinct, GFP-expressing cells are counted using an Acumen imaging system with appropriate settings. A same-well CTG assay is performed by adding 10 μl/well reconstituted CellTiter-Glo reagent (Promega G7573) and reading plates on PerkinElmer Envision according to manufacturer's instructions. Raw data were loaded and analyzed in ActivityBase. Antiviral IC50 and cytotoxicity CC50 values were determined using a 4 parameter logistic fit based on the Levenberg-Marquardt algorithm. Model: 205-4 Parameter Logistic.
Calu-1 cells were purchased from ATCC (Cat #HTB-54) and are expanded in growth media (DMEM containing 10% FBS, 100 U/ml Penicillin-Streptomycin). To make ARF, remove and discard cell culture media, briefly rinse the cell layer with PBS to remove all traces of serum. Add 2.5 ml of TrypLE Express solution and incubate until cells dislodge, then add growth media and resuspend the cells by gentle pipetting. Count cells for concentration and determine viability using a ViCell. Centrifuge at RT, 300 g for 5 min to pellet cells. Gently aspirate supernatant, flick pellet to loosen cells. Resuspend cells in an appropriate volume of freezing medium (DMEM containing 10% DMSO, 10% FBS, 100 U/ml Penicillin-Streptomycin) to achieve 5×10^6/ml. Transfer 1 ml of cell suspension to freezing vials. Put vials to CoolCell cryopreservation container and place CoolCell container upright in a −80° C. freezer overnight before transferring vials to liquid nitrogen vapor for storage.

[1] = read-out: RSV EC50, Calu-1 cells, RSV-A2-GFP MOI=1.2, 96 hrs, GFP-expressing cells counted
[2] = human respiratory syncytial virus, Calu-1, 96 h, read-out: RSV EC50, Calu-1 cells, RSV-A2-GFP MOI=1.2, 96 hrs, GFP-expressing cells counted

`CC(N)C(C)(C)c1cc(-c2ccc(F)cc2)nc(C(C)(O)CNC(=O)c2cc(-n3cccn3)nn2C)c1` (single isomer, unassigned) [Example 33-B, N-(2-(4-(3-amino-2-methylbutan-2-yl)-6-(4-fluorophenyl)pyridin-2-yl)-2-hydroxypropyl)-1′-methyl-1′H-[1,3′-bipyrazole]-5′-carboxamide] was tested, and the EC50 [1] was > 100 nM.

In the case of `CC(N)C(C)(C)c1cc(-c2ccc(F)cc2)nc(C(C)(O)CNC(=O)c2cc(-n3cccn3)nn2C)c1` (single isomer, unassigned) [Example 33-C, N-(2-(4-(3-amino-2-methylbutan-2-yl)-6-(4-fluorophenyl)pyridin-2-yl)-2-hydroxypropyl)-1′-methyl-1′H-[1,3′-bipyrazole]-5′-carboxamide], the EC50 [1] is reported as < 10 nM.

`CC(N)C(C)(C)c1cc(-c2ccc(F)cc2)nc(C(C)(O)CNC(=O)c2cc(-n3cccn3)nn2C)c1` (single isomer, unassigned) [Example 33-D, N-(2-(4-(3-amino-2-methylbutan-2-yl)-6-(4-fluorophenyl)pyridin-2-yl)-2-hydroxypropyl)-1′-methyl-1′H-[1,3′-bipyrazole]-5′-carboxamide] was tested, and the EC50 [1] was < 10 nM.

In the case of `Cn1nc(-n2cccn2)cc1C(=O)NCC(O)c1cc(C(C)(C)N)cc(-c2ccc(F)cc2)n1` (single isomer, unassigned) [Example 34-A, N-(2-(4-(2-aminopropan-2-yl)-6-(4-fluorophenyl)pyridin-2-yl)-2-hydroxyethyl)-1′-methyl-1′H-[1,3′-bipyrazole]-5′-carboxamide], the EC50 [1] is reported as < 10 nM.

With `Cn1nc(-n2cccn2)cc1C(=O)NCC(O)c1cc(C(C)(C)N)cc(-c2ccc(F)cc2)n1` (single isomer, unassigned) [Example 34-B, N-(2-(4-(2-aminopropan-2-yl)-6-(4-fluorophenyl)pyridin-2-yl)-2-hydroxyethyl)-1′-methyl-1′H-[1,3′-bipyrazole]-5′-carboxamide] the EC50 [1] was > 100 nM.

`Cn1nc(-n2cccn2)cc1C(=O)NCC(O)(c1cc(C(C)(C)N)cc(-c2ccc(F)cc2)n1)C1CC1` (single isomer, unassigned) [Example 35-B, N-(2-(4-(2-aminopropan-2-yl)-6-(4-fluorophenyl)pyridin-2-yl)-2-cyclopropyl-2-hydroxyethyl)-1′-methyl-1′H-[1,3′-bipyrazole]-5′-carboxamide] was tested, and the EC50 [2] was < 10 nM.

With `Cn1nc(-n2cccn2)cc1C(=O)NCC(O)(c1cc(C(C)(C)N)cc(-c2ccc(F)cc2)n1)C(F)(F)F` (single isomer, unassigned) [Example 36-A, N-(2-(4-(2-aminopropan-2-yl)-6-(4-fluorophenyl)pyridin-2-yl)-3,3,3-trifluoro-2-hydroxypropyl)-1′-methyl-1′H-[1,3′-bipyrazole]-5′-carboxamide] the EC50 [2] was < 10 nM.

With `Cn1nc(-n2cccn2)cc1C(=O)NCC(C)(O)c1cc(C(C)(C)N)cc(-c2ccc(C(F)(F)F)cc2)n1` (single isomer, unassigned) [Example 37-B, N-(2-(4-(2-aminopropan-2-yl)-6-(4-(trifluoromethyl)phenyl)pyridin-2-yl)-2-hydroxypropyl)-1′-methyl-1′H-[1,3′-bipyrazole]-5′-carboxamide] the EC50 [2] was < 10 nM.

With `Cn1nc(-n2cccn2)cc1C(=O)NCC(C)(O)c1cc(C(C)(C)N)cc(-c2ccc(F)c(F)c2)n1` (single isomer, unassigned) [Example 38-B, N-(2-(4-(2-aminopropan-2-yl)-6-(3,4-difluorophenyl)pyridin-2-yl)-2-hydroxypropyl)-1′-methyl-1′H-[1,3′-bipyrazole]-5′-carboxamide] the EC50 [2] was < 10 nM.

With `Cn1nc(-n2cccn2)cc1C(=O)NCC(C)(O)c1cc(C(C)(C)N)cc(-c2ccc(Cl)c(F)c2)n1` (single isomer, unassigned) [Example 39-B, N-(2-(4-(2-aminopropan-2-yl)-6-(4-chloro-3-fluorophenyl)pyridin-2-yl)-2-hydroxypropyl)-1′-methyl-1′H-[1,3′-bipyrazole]-5′-carboxamide] the EC50 [2] was < 10 nM.

`Cn1nc(-n2cccn2)cc1C(=O)NCC(C)(O)c1cc(C(C)(C)N)cc(Cc2ccc(F)cc2)n1` (single isomer, unassigned) [Example 40-B, N-(2-(4-(2-aminopropan-2-yl)-6-(4-fluorobenzyl)pyridin-2-yl)-2-hydroxypropyl)-1′-methyl-1′H-[1,3′-bipyrazole]-5′-carboxamide] was tested, and the EC50 [2] was < 10 nM.

`Cn1nc(-n2cccn2)cc1C(=O)NCC(O)(c1cc(C(C)(C)N)cc(-c2ccc(C(F)F)cc2)n1)C(F)(F)F` (single isomer, unassigned) [Example 41-A, N-(2-(4-(2-aminopropan-2-yl)-6-(4-(difluoromethyl)phenyl)pyridin-2-yl)-3,3,3-trifluoro-2-hydroxypropyl)-1′-methyl-1′H-[1,3′-bipyrazole]-5′-carboxamide] was tested, and the EC50 [2] was < 10 nM.

In the case of `Cn1nc(-n2cccn2)cc1C(=O)NCC(O)(c1cc(C(C)(C)N)cc(-c2ccc(C(F)(F)F)cc2)n1)C(F)(F)F` (single isomer, unassigned) [Example 42-A, N-(2-(4-(2-aminopropan-2-yl)-6-(4-(trifluoromethyl)phenyl)pyridin-2-yl)-3,3,3-trifluoro-2-hydroxypropyl)-1′-methyl-1′H-[1,3′-bipyrazole]-5′-carboxamide], the EC50 [2] is reported as < 10 nM.

In the case of `Cn1nc(-n2cccn2)cc1C(=O)NCC(O)(c1cc(C(C)(C)N)cc(-c2ccc(F)c(F)c2)n1)C(F)(F)F` (single isomer, unassigned) [Example 43-A, N-(2-(4-(2-aminopropan-2-yl)-6-(3,4-difluorophenyl)pyridin-2-yl)-3,3,3-trifluoro-2-hydroxypropyl)-1′-methyl-1′H-[1,3′-bipyrazole]-5′-carboxamide], the EC50 [2] is reported as < 10 nM.

`Cn1nc(-n2cccn2)cc1C(=O)NCC(O)(c1cc(C(C)(C)N)cc(-c2ccc(F)cc2F)n1)C(F)(F)F` (single isomer, unassigned) [Example 44-A, N-(2-(4-(2-aminopropan-2-yl)-6-(2,4-difluorophenyl)pyridin-2-yl)-3,3,3-trifluoro-2-hydroxypropyl)-1′-methyl-1′H-[1,3′-bipyrazole]-5′-carboxamide] was tested, and the EC50 [2] was < 10 nM.

`Cc1cc(F)ccc1-c1cc(C(C)(C)N)cc(C(O)(CNC(=O)c2cc(-n3cccn3)nn2C)C(F)(F)F)n1` (single isomer, unassigned) [Example 45-A, N-(2-(4-(2-aminopropan-2-yl)-6-(4-fluoro-2-methylphenyl)pyridin-2-yl)-3,3,3-trifluoro-2-hydroxypropyl)-1′-methyl-1′H-[1,3′-bipyrazole]-5′-carboxamide] was tested, and the EC50 [2] was < 10 nM.
